{"source": "patent US7994127B2", "about": "“Treatment of rett syndrome” (Massachusetts Institute of Technology, priority 2007, dated 2011)", "key": {"[1]": {"system": "layer 5 pyramidal neurons in motor cortex of MeCP2 knockout mice", "experiment": "Golgi staining, dendritic spine density and morphology", "format": "in vivo, mouse"}, "[2]": {"details": "in vivo; cited from earlier work"}, "MeCP2 KO mice": {"system": "MeCP2 KO mice", "experiment": "Nocturnal activity measurements (infrared beam interruptions)", "format": "in vivo, mouse", "details": "for nocturnal locomotor activity, beam interruptions over 10 hours (FIG. 4B): 6 to 17 weeks of age", "experimental": "(1-3)IGF-1 treatment: For the survival measurements, the nocturnal activity analysis and the immunoblot analysis, (1-3) IGF-1 (Bachem Biosciences # H22468) was administered daily via intra-peritoneal injections (0.01 mg/g body weight, vehicle=saline, 0.01% BSA). The treatment was started at P15 and maintained throughout the course of the experiments. For intracellular physiology experiments, the mice were injected daily (0.01 mg/g body weight, vehicle=saline, 0.01% BSA) for 2 weeks, from P15 to P28-P32 when they were used for acute slice preparation. For optical imaging experiments, mice were injected with (1-3) IGF-1 (0.02 mg/g body weight, vehicle=saline, 0.01% BSA) daily from the day of the lid suture to the day of imaging. Slice physiology preparation: Coronal sections (300 μm thick) at or near sensorimotor cortex were cut in <4° C. ACSF using a Vibratome. Slices were incubated at 37° C. for 20 minutes after slicing, and at room temperature for the remainder of the experiment. Slices were transferred to a Warner chamber and recordings were taken from visually identified pyramidal neurons located in layer 5. Artificial cerebral spinal fluid (ACSF) contained 126 mM NaCl, 25 mM NaHCO3, 1 mM NaHPO4, 3 mM KCl, 2 mM MgSO4, 2 mM CaCl2, and 14 mM dextrose, was adjusted to 315-320 mOsm and 7.4 pH, and was bubbled with 95% O2/5% CO2. The intracellular pipette solution contained 100 mM potassium gluconate, 20 mM KCl, 10 mM HEPES, 4 mM MgATP, 0.3 mM NaGTP, and 10 mM Na-phosphocreatine. […] Cells were visualized with an Achroplan 40× water-immersion lens with infrared-DIC optics (Zeiss) and detected with an infrared camera (Hamamatsu) projecting to a video monitor. […] Then in current clamp ˜10 pulses (500 ms, 40-140 pA at 10 pA increments), were applied to quantify evoked firing rates and cellular excitability. […] Analysis was performed using a custom software package written in Matlab, with all events detected according to automated thresholds and blindly verified for each event individually by the experimenter. […]"}, "tPA": {"system": "tPA", "experiment": "tPA expression (mRNA, tPA staining) during monocular deprivation", "format": "in vivo, mouse", "details": "mice subjected to MD and treated", "experimental": "A: Effects of (1-3)IGF-1 (GPE) treatment on the expression levels of BDNF at mRNA level. […] (1-3)IGF-1 treatment is able to increase expression though not to control levels. The RNA levels were obtained with the micro-array analysis described in Tropea et al., 2006. B: Double staining for NeuN (green) and proBDNF (red) antibody. […] Anti-pro BDNF and anti-NeuN were obtained from CHEMICON and used at a concentration of 1:500. The solutions and time of incubations are the following: preincubation in 5% BSA, 0.1% triton, 10% serum, PBS. Incubation with the primary antibodies was carried out at 4 degrees for 3 days in the following solution: 2% BSA, 5% serum, 0.1% triton, PBS. After washings in PBS secondary biotinylated (for pro-BDNF) or Alexa conjugated (for NeuN) antibodies (1:200) were incubated for 2 hours in the same solution of the primary antibodies. The pro-BDNF labeling was detected by adding extravidine tritc (Sigma—1:300). C: Effects of (1-3)IGF-1 (GPE) treatment on the mRNA expression levels of tPA. […] Anti-tPA was purchased from Oxford Biomedical Research and used at a concentration of 1:500. The conditions for incubation were the following: free floating sections were pre-incubated in blocking solution: 10% serum, 0.3% triton, PBS and then left overnight in the primary antibody mix: 1% serum, 0.3% triton, PBS, anti-tPA 1:500, anti Neu-N 1:500. […]"}, "[3]": {"system": "neurons in the CA3 region of the hippocampus", "experiment": "Neuron soma size in hippocampus", "format": "in vivo, mouse", "experimental": "We also measured the effect of (1-3)IGF1 treatment on neuron soma size in hippocampus. Mice were treated with (1-3)IGF1 as described above for locomotor activity."}, "[4]": {"details": "P28, knockout treated vs knockout and wild-type"}}, "note": "“Also recorded” adds a separate entry of the source."}
{"smiles": "NCC(=O)N1CCC[C@H]1C(=O)N[C@@H](CCC(=O)O)C(=O)O", "note": "[(1-3)IGF-1, glycyl-L-prolyl-L-glutamic acid]", "values": [{"measurement": "over-representation of thin (immature) spines (FIG. 2D)", "setting": "[1]; P28, knockout treated vs knockout", "value": "not ameliorated by the treatment"}, {"measurement": "% mushroom (mature) spines (FIG. 2D)", "setting": "[1]; [4]", "value": "reduced in the knockout compared to wild-type and knockout treated with (1-3)IGF1"}, {"measurement": "dendritic spine density (spines per length of dendrite, FIG. 2C)", "setting": "[1]; [4]", "value": "spine densities more similar to wild-type values"}, {"measurement": "average dendritic branch thickness (FIG. 2E)", "setting": "[1]; P28, wild-type, knockout, knockout treated", "value": "did not vary"}, {"measurement": "crossing the blood-brain barrier", "setting": "[2]", "value": "capable of crossing the blood-brain barrier"}, {"measurement": "nocturnal locomotor activity, beam interruptions over 10 hours (FIG. 4B)", "setting": "MeCP2 KO mice; MeCP2 KO mice, 0.01 mg/g IP daily from P15, vs vehicle KO", "value": "elevated these levels; also recorded: more active than vehicle-treated KO animals (KO) but not as active as WT"}, {"measurement": "nocturnal locomotor activity, beam interruptions over 10 hours (FIG. 4B)", "setting": "MeCP2 KO mice; wild-type mice treated (WT-T) vs WT", "value": "failing to increase activity in wild-type animals; also recorded: not significantly more active than WT"}, {"measurement": "nocturnal locomotor activity, beam interruptions over 10 hours (FIG. 6)", "setting": "MeCP2 KO mice; young mice, 4 to 5 weeks of age", "value": "treatment did not change activity levels"}, {"measurement": "tPA protein expression level, tPA staining (FIG. 8D)", "setting": "tPA", "value": "strongly increased"}, {"measurement": "tPA mRNA expression (FIG. 8C)", "setting": "tPA; vs control and deprived animals", "value": "significantly up-regulated tPA mRNA expression relative to both control and deprived animals"}, {"measurement": "average soma size (cell perimeter, FIG. 7)", "setting": "[3]; MeCP2 KO animals, treated as for locomotor activity", "value": "increased average soma size in KO animals"}, {"measurement": "size of cell bodies", "setting": "[3]; as a result of the knockout or treatment (Discussion)", "value": "no change was observed"}, {"measurement": "soma size (cell perimeter, FIG. 7)", "setting": "[3]; wild type animals treated", "value": "had no effect on soma size in wild type animals"}]}
